Experimental data: patent US8815881B2 (Hoffmann-La Roche Inc., priority 2010, dated 2014)

Molecular target: endogenous cellular BACE2 in the Ins1e rat cell line (Rattus norvegicus (Rat), UniProt Q6IE75)
Assay: Assay for BACE inhibition by measuring cellular TMEM27 cleavage (ELISA of shed hTMEM27 from INS-TMEM27 cells)
Format: cell-based
Details: assay a): cellular TMEM27 cleavage, INS-TMEM27 cells (superscript a)
Summary of the method: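 Shed human TMEM27 is quantified by ELISA in medium of TetOn INS1e cells after 46 h at 37 °C. Compound is dosed across a concentration range, followed 2 h later by doxycycline induction at 500 ng/ml. Each concentration's readout is curve-fitted to give the EC50.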

Chain of endogenous cellular BACE2 in the Ins1e rat cell line (Q6IE75 63-514): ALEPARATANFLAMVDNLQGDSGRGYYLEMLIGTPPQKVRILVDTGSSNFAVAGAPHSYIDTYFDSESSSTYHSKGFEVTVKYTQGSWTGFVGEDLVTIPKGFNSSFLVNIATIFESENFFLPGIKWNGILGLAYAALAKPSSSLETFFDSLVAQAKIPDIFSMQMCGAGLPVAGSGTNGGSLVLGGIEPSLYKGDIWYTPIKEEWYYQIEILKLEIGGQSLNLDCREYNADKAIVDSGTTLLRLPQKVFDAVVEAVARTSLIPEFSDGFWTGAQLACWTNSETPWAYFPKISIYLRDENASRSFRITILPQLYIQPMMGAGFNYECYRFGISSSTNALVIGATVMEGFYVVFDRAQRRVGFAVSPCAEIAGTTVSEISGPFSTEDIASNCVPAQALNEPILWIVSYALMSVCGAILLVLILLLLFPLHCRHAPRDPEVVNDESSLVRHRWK

SMILES	IC50 [µM]
CN1C(=O)C(C)(C)[C@@](C)(c2cc(NC3CCC(C(F)(F)F)CC3)ccc2F)N=C1N (stereo partly drawn) [Example 41, (S)-2-amino-6-(2-fluoro-5-(4-(trifluoromethyl)cyclohexylamino)phenyl)-3,5,5,6-tetramethyl-5,6-dihydropyrimidin-4(3H)-one]	0.426
COc1cccc2c1CCC2Nc1ccc(F)c([C@@]2(C)N=C(N)N(C)C(=O)C2(C)C)c1 (stereo partly drawn) [Example 47, (S)-2-Amino-6-[2-fluoro-5-(4-methoxy-indan-1-ylamino)-phenyl]-3,5,5,6-tetramethyl-5,6-dihydro-3H-pyrimidin-4-one]	0.217
COc1ccccc1Nc1ccc(F)c([C@@]2(C)N=C(N)N(C)C(=O)C2(C)C)c1 [Example 56, (S)-2-Amino-6-(2-fluoro-5-(2-methoxyphenylamino)phenyl)-3,5,5,6-tetramethyl-5,6-dihydropyrimidin-4(3H)-one]	0.015
CN1C(=O)C(C)(C)[C@@](C)(c2cc(NCc3ncccn3)ccc2F)N=C1N [Example 85, (S)-2-Amino-6-{2-fluoro-5-[(pyrimidin-2-ylmethyl)-amino]-phenyl}-3,5,5,6-tetramethyl-5,6-dihydro-3H-pyrimidin-4-one]	0.101
CC(Nc1ccc(F)c([C@@]2(C)N=C(N)N(C)C(=O)C2(C)C)c1)c1nc2ccccc2s1 (stereo partly drawn) [Example 127, (S)-2-Amino-6-[5-(1-benzothiazol-2-yl-ethylamino)-2-fluoro-phenyl]-3,5,5,6-tetramethyl-5,6-dihydro-3H-pyrimidin-4-one]	0.073
COc1ccc(C(=O)O)cc1Nc1ccc(F)c([C@@]2(C)N=C(N)N(C)C(=O)C2(C)C)c1 [Example 129, (S)-3-(3-(2-amino-1,4,5,5-tetramethyl-6-oxo-1,4,5,6-tetrahydropyrimidin-4-yl)-4-fluorophenylamino)-4-methoxybenzoic acid]	3.05
C[C@@H]1CC(Nc2ccc(F)c([C@@]3(C)N=C(N)N(C)C(=O)C3(C)C)c2)C[C@H](C)O1 (stereo partly drawn) [Example 155, (6S)-2-Amino-6-(5-((2R,6S)-2,6-dimethyltetrahydro-2H-pyran-4-ylamino)-2-fluorophenyl)-3,5,5,6-tetramethyl-5,6-dihydropyrimidin-4(3H)-one]	0.123
CN1C(=O)C(C)(C)[C@@](C)(c2cc(NCC3CC3)ccc2F)N=C1N [Example 52, (S)-2-Amino-6-(5-(C-cyclopropylmethylamino)-2-fluorophenyl)-3,5,5,6-tetramethyl-5,6-dihydropyrimidin-4(3H)-one]	0.007
CN1C(=O)C(C)(C)[C@@](C)(c2cc(NC3COc4ccccc43)ccc2F)N=C1N (stereo partly drawn) [Example 51, (6S)-2-amino-6-(5-(2,3-dihydrobenzofuran-3-ylamino)-2-fluorophenyl)-3,5,5,6-tetramethyl-5,6-dihydropyrimidin-4(3H)-one]	0.073
Cc1cc(C)c(Nc2ccc(F)c([C@@]3(C)N=C(N)N(C)C(=O)C3(C)C)c2)cc1C [Example 146, (S)-2-Amino-6-(2-fluoro-5-(2,4,5-trimethylphenylamino)phenyl)-3,5,5,6-tetramethyl-5,6-dihydropyrimidin-4(3H)-one]	0.257
CN1C(=O)C(C)(C)[C@@](C)(c2cc(Nc3cccc4c3OCC4)ccc2F)N=C1N [Example 157, (S)-2-Amino-6-(5-(2,3-dihydrobenzofuran-7-ylamino)-2-fluorophenyl)-3,5,5,6-tetramethyl-5,6-dihydropyrimidin-4(3H)-one]	0.654
CN1C(=O)C(C)(C)[C@@](C)(c2cc(NC3CCN(Cc4ccccc4)CC3)ccc2F)N=C1N [Example 43, (S)-2-Amino-6-[5-(1-benzyl-piperidin-4-ylamino)-2-fluoro-phenyl]-3,5,5,6-tetramethyl-5,6-dihydro-3H-pyrimidin-4-one]	0.211
CN1C(=O)C(C)(C)[C@@](C)(c2cc(NC(=O)C3(C)CC3)ccc2F)N=C1N [Example 18, (S)—N-(3-(2-Amino-1,4,5,5-tetramethyl-6-oxo-1,4,5,6-tetrahydropyrimidin-4-yl)-4-fluorophenyl)-1-methylcyclopropanecarboxamide]	0.023
CN1C(=O)C(C)(C)[C@@](C)(c2cc(NC(=O)C(F)(F)C(F)(F)F)ccc2F)N=C1N [Example 6, N-[3-((S)-2-Amino-1,4,5,5-tetramethyl-6-oxo-1,4,5,6-tetrahydro-pyrimidin-4-yl)-4-fluoro-phenyl]-2,2,3,3,3-pentafluoro-propionamide]	0.35
Cc1ccc(Cl)cc1Nc1ccc(F)c([C@@]2(C)N=C(N)N(C)C(=O)C2(C)C)c1 [Example 118, (S)-2-Amino-6-(5-(5-chloro-2-methylphenylamino)-2-fluorophenyl)-3,5,5,6-tetramethyl-5,6-dihydropyrimidin-4(3H)-one]	0.002
COc1ccc(Nc2ccc(F)c([C@@]3(C)N=C(N)N(C)C(=O)C3(C)C)c2)cc1 [Example 72, (S)-2-Amino-6-(2-fluoro-5-(4-methoxyphenylamino)phenyl)-3,5,5,6-tetramethyl-5,6-dihydropyrimidin-4(3H)-one]	0.201

Now from value to compound:

IC50 [µM]	SMILES
0.047	CN1C(=O)C(C)(C)[C@@](C)(c2cc(NC3CCOc4cc(F)ccc43)ccc2F)N=C1N (stereo partly drawn) [Example 140, (S)-2-Amino-6-[2-fluoro-5-(7-fluoro-chroman-4-ylamino)-phenyl]-3,5,5,6-tetramethyl-5,6-dihydro-3H-pyrimidin-4-one]
0.076	CN1C(=O)C(C)(C)[C@@](C)(c2cc(Nc3ccccc3OC(F)(F)F)ccc2F)N=C1N [Example 74, (S)-2-Amino-6-(2-fluoro-5-(2-(trifluoromethoxy)phenylamino)phenyl)-3,5,5,6-tetramethyl-5,6-dihydropyrimidin-4(3H)-one]
0.036	CCC1CC(Nc2ccc(F)c([C@@]3(C)N=C(N)N(C)C(=O)C3(C)C)c2)c2ccccc21 (stereo partly drawn) [Example 113, (S)-2-Amino-6-[5-(3-ethyl-indan-1-ylamino)-2-fluoro-phenyl]-3,5,5,6-tetramethyl-5,6-dihydro-3H-pyrimidin-4-one]
0.001	CCOC(=O)[C@H]1[C@@H]2C[C@@H](O)C(Nc3ccc(F)c([C@@]4(C)N=C(N)N(C)C(=O)C4(C)C)c3)[C@@H]21 (stereo partly drawn) [Example 100, (1S,3R,5R,6S)-ethyl 2-(3-((S)-2-amino-1,4,5,5-tetramethyl-6-oxo-1,4,5,6-tetrahydropyrimidin-4-yl)-4-fluorophenylamino)-3-hydroxybicyclo[3.1.0]hexane-6-carboxylate]
0.016	CN1C(=O)C(C)(C)[C@@](C)(c2cc(Nc3ccccc3Cl)ccc2F)N=C1N [Example 119, (S)-2-Amino-6-(5-(2-chlorophenylamino)-2-fluorophenyl)-3,5,5,6-tetramethyl-5,6-dihydropyrimidin-4(3H)-one]
0.014	CC[C@H]1C(=O)N(C)C(N)=N[C@]1(C)c1cccc(NC(=O)C2(C(F)(F)F)CC2)c1 [Example 11, 1-Trifluoromethyl-cyclopropanecarboxylic acid [3-((4S,5R)-2-amino-5-ethyl-1,4-dimethyl-6-oxo-1,4,5,6-tetrahydro-pyrimidin-4-yl)-phenyl]-amide]
2	CN1C(=O)C(C)(C)[C@@](C)(c2cc(NC3CCc4c(C(=O)O)cccc43)ccc2F)N=C1N (stereo partly drawn) [Example 136, 1-[3-((S)-2-Amino-1,4,5,5-tetramethyl-6-oxo-1,4,5,6-tetrahydro-pyrimidin-4-yl)-4-fluoro-phenylamino]-indan-4-carboxylic acid]
0.006	CN1C(=O)C(C)(C)[C@@](C)(c2cc(Nc3ccn(C)n3)ccc2F)N=C1N [Example 99, (S)-2-Amino-6-[2-fluoro-5-(1-methyl-1H-pyrazol-3-ylamino)-phenyl]-3,5,5,6-tetramethyl-5,6-dihydro-3H-pyrimidin-4-one]
0.178	COc1ccc(Nc2ccc(F)c([C@@]3(C)N=C(N)N(C)C(=O)C3(C)C)c2)c(OC)c1 [Example 108, (S)-2-Amino-6-(5-(2,4-dimethoxyphenylamino)-2-fluorophenyl)-3,5,5,6-tetramethyl-5,6-dihydropyrimidin-4(3H)-one]
0.014	CN1C(=O)C(C)(C)[C@@](C)(c2cc(NCC3(C)COC3)ccc2F)N=C1N [Example 71, (S)-2-Amino-6-{2-fluoro-5-[(3-methyl-oxetan-3-ylmethyl)-amino]-phenyl}-3,5,5,6-tetramethyl-5,6-dihydro-3H-pyrimidin-4-one]
0.085	CN1C(=O)C(C)(C)[C@@](C)(c2cc(NC(=O)C3(C(F)(F)F)CCC3)ccc2F)N=C1N [Example 4, 1-Trifluoromethyl-cyclobutanecarboxylic acid [3-((S)-2-amino-1,4,5,5-tetramethyl-6-oxo-1,4,5,6-tetrahydro-pyrimidin-4-yl)-4-fluoro-phenyl]-amide]
0.157	CN1C(=O)C(C)(C)[C@@](C)(c2cc(NC(=O)CC3CCC3)ccc2F)N=C1N [Example 27, (S)—N-(3-(2-amino-1,4,5,5-tetramethyl-6-oxo-1,4,5,6-tetrahydropyrimidin-4-yl)-4-fluorophenyl)-2-cyclobutylacetamide]
0.223	CN1C(=O)C(C)(C)[C@@](C)(c2cc(Nc3ccc(F)cc3F)ccc2F)N=C1N [Example 81, (S)-2-Amino-6-(5-(2,4-difluorophenylamino)-2-fluorophenyl)-3,5,5,6-tetramethyl-5,6-dihydropyrimidin-4(3H)-one]
0.256	CN1C(=O)C(C)(C)[C@@](C)(c2cc(NC(=O)C3(C)COC3)ccc2F)N=C1N [Example 131]
0.006	CN1C(=O)C(C)(C)[C@@](C)(c2cc(NCc3nn(C(F)F)cc3Cl)ccc2F)N=C1N [Example 160, (S)-2-Amino-6-{5-[(4-chloro-1-difluoromethyl-1H-pyrazol-3-ylmethyl)-amino]-2-fluoro-phenyl}-3,5,5,6-tetramethyl-5,6-dihydro-3H-pyrimidin-4-one]
0.042	CN1C(=O)C(C)(C)[C@@](C)(c2cc(Nc3ccccc3)ccc2F)N=C1N [Example 48, (S)-2-amino-6-(2-fluoro-5-(phenylamino)phenyl)-3,5,5,6-tetramethyl-5,6-dihydropyrimidin-4(3H)-one]
